≈ marks a conversion by molar mass, not a printed value.
Key:
[1] = Solubility in ethylene glycol; conditions: organic solvent or mixture
[2] = Density of naphthalene based compounds and liquid lens liquids; assay type: physicochemical; design: Density at 20° C.: unit not given here; conditions: for Density at 20° C.: neat compound
Viscosity at 20° C. = assay type: physicochemical; conditions: neat compound
Protocol: (§1) The following examples represent a variety of liquid lenses prepared according to Varioptic A39N0 design. The Varioptic A39N0 lens design includes a mechanical aperture of about 3.9 mm, a non-conductive fluid layer thickness of about 0.6 mm, and a conductive fluid layer thickness of about 1.8 mm. The properties measured for these electrowetting optical devices were performed at 20° C.
(§2) Example of the naphthalene based compounds disclosed herein have a listing of some of their physical properties listed below.

[3] = Refractive index at 589.3 nm; assay type: physicochemical; conditions: neat compound
Protocol: as §1, §2

Solubility in water = conditions: 20 °C

Density ([2]; comparative aliphatic oil, temperature not given)	SMILES	solubility ([1]; 20 °C)	solubility ([1]; 85 °C)	Density at 20° C. [2]	Viscosity at 20° C. (Viscosity at 20° C.)	Index at 589.3 nm/20° C. [3]	solubility (Solubility in water)	Density ([2]; 25° C.)
–	CCCC[Si](C)(C)c1ccc2ccccc2c1 [IX, 2-dimethylbutylsilane naphthalene]	1100 µg/mL (≈ 4.54 mM)	2100 µg/mL (≈ 8.66 mM)	0.97	14.9 cSt	1.57	–	–
–	[CH3][Ge]([CH3])([CH3])[c]1ccc2ccccc2c1 [VI, 2-trimethylgermane naphthalene]	3400 µg/mL	14800 µg/mL	1.19	6.1 cSt	1.59	6 µg/mL	–
–	C[CH2][Ge]([CH2]C)([CH2]C)[c]1ccc2ccccc2c1 [VII, 2-triethylgermane naphthalene]	1900 µg/mL	4200 µg/mL	1.14	10.6 cSt	1.58	–	–
–	C[Si](C)(C)c1ccc2ccccc2c1 [VIII, 2-trimethylsilane naphthalene]	–	–	1.01	8.1 cSt	1.58	–	–
–	c1ccc(Sc2ccc3ccccc3c2)cc1 [X, 2-phenylsulfur naphthalene]	–	–	1.16	33.8 cSt	1.69	–	–
–	CCCCCCCC[Si](C)(C)c1ccc2ccccc2c1 [XI, 2-dimethyloctylsilane naphthalene]	440 µg/mL (≈ 1.47 mM)	680 µg/mL (≈ 2.28 mM)	0.95	25.9 cSt	1.54	–	–
–	Fc1cccc2ccccc12 [XII, 1-fluoronapthalene]	–	–	1.13	2.1 cSt	1.59	–	–
–	CCc1ccc2ccccc2c1 [XIII, 2-ethylnaphthalene]	–	–	1.01	3.9 cSt	1.61	–	about 1.01 g/cm^3
–	CCCc1ccc2ccccc2c1 [XIV, 2-propylnaphthalene]	–	–	0.98	–	1.58	–	–
0.75 g/mL	CCCCCCCCCCCC [dodecane, reference compound]	–	–	–	–	–	–	–

Source: patent US11204492B2, “Naphtyl based high index hydrophobic liquids and transmission recovery agents for liquid lens formulations” (CORNING INCORPORATED, priority 2018, dated 2021)
